Test results taken from article PMC3773988 (Journal of medicinal chemistry, 2013).
Residues, ends and D or L forms follow the SMILES beside them. *: point of attachment. X1 = O=C(O)CCC(NC(=O)NC(CCCCNC(=O)CCCCCCC(=O)*)C(=O)O)C(=O)O; Acetyl(2-STrt) = O=C(CSC(c1ccccc1)(c1ccccc1)c1ccccc1)*

target: PSMA (Homo sapiens, UniProt Q04609); assay: NAALADase assay; format: biochemical
Sequence (Q04609 whole entry): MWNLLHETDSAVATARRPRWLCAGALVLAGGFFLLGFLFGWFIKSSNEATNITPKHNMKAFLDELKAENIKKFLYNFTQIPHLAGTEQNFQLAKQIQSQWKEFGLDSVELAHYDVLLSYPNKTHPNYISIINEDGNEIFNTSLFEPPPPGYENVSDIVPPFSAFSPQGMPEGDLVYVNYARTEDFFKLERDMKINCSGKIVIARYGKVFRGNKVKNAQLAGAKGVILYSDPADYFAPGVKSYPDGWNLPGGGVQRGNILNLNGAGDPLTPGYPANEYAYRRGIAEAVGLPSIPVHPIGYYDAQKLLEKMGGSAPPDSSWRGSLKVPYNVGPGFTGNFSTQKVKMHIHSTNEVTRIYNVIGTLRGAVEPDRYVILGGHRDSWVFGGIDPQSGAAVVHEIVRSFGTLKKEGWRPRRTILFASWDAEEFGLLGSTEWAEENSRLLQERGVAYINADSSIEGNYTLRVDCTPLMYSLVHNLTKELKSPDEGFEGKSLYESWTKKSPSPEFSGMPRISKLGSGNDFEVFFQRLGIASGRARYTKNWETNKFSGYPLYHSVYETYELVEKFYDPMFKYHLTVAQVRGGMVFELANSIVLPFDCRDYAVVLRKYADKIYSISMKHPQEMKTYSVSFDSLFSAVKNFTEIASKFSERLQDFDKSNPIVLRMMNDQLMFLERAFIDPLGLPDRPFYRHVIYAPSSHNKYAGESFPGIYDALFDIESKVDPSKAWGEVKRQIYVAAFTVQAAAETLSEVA

| SMILES | Ki |
| --- | --- |
| O=C(O)CCC(NC(=O)NC(CCCCNC(=O)CCCCCCC(=O)NC(CCCCN(CC(=O)O)Cc1ccccn1)C(=O)O)C(=O)O)C(=O)O (centres unmarked) [Compound L9, 2-[3-(1-Carboxy-5-(7-[1-carboxy-5-(carboxymethyl-pyridin-2-ylmethyl-amino)-pentylcarbamoyl]-heptanoylamino)-pentyl)-ureido]-pentanedioic acid] | 12.6 nM |
| O=C(O)CCC(NC(=O)NC(CCCCNC(=O)CCCCCCC(=O)NC(CCCCN(Cc1ncc[nH]1)Cc1ncc[nH]1)C(=O)O)C(=O)O)C(=O)O (centres unmarked) [Compound L10, 2-{3-[5-(7-(5-[Bis-(1H-imidazol-2-ylmethyl)-amino]-1-carboxy-pentylcarbamoyl)-heptanoylamino)-1-carboxy-pentyl]-ureido}-pentanedioic acid] | 16.3 nM |
| O=C(O)CCC(NC(=O)NC(CCCCNC(=O)CCCCCCC(=O)NCCCCC(NC(=O)C(Cc1ccccc1)NC(=O)CNC(=O)CNC(=O)CSC(c1ccccc1)(c1ccccc1)c1ccccc1)C(=O)O)C(=O)O)C(=O)O (centres unmarked) [Compound L12, 12-benzyl-4,7,10,13,21,28,36-heptaoxo-1,1,1-triphenyl-2-thia-5,8,11,14,20,29,35,37-octaazatetracontane-15,34,38,40-tetracarboxylic acid] ({Acetyl(2-STrt)}-GGFK(X1)-OH; configuration not given here) | 0.13 nM |
| O=C(O)CC[C@H](NC(=O)N[C@@H](CCCCNC(=O)CCCCCCC(=O)NCCCC[C@@H](NC(=O)C(CNC(=O)CSC(c1ccccc1)(c1ccccc1)c1ccccc1)NC(=O)CSC(c1ccccc1)(c1ccccc1)c1ccccc1)C(=O)O)C(=O)O)C(=O)O (stereo partly drawn) [Compound L16, (10R, 29S ,33S)-4,8,16,23,31-pentaoxo-1,1,1-triphenyl-7-(2-(tritylthio)acetamido)-2-thia-5,9,15,24,30,32-hexaazapentatriacontane-10,29,33,35-tetracarboxylic acid] | 0.048 nM |

Further compounds by falling Ki, results first:

| Ki | SMILES |
| --- | --- |
| 1.91 nM | O=C(O)CCC(NC(=O)NC(CCCCNC(=O)CCCCCCC(=O)NCCCCC(NC(=O)C(Cc1ccccc1)NC(=O)C(Cc1ccccc1)NC(=O)CNC(=O)CNC(=O)CSC(c1ccccc1)(c1ccccc1)c1ccccc1)C(=O)O)C(=O)O)C(=O)O (centres unmarked) [Compound L13, 12,15-dibenzyl-4,7,10,13,16,24,31,39-octaoxo-1,1,1-triphenyl-2-thia-5,8,11,14,17,23,32,38,40-nonaazatritetracontane-18,37,41,43-tetracarboxylic acid] ({Acetyl(2-STrt)}-GGFFK(X1)-OH; configuration not given here) |
| 1.74 nM | NNc1ccc(C(=O)NCCCCC(NC(=O)CCCCCCC(=O)NCCCCC(NC(=O)NC(CCC(=O)O)C(=O)O)C(=O)O)C(=O)O)cn1 (centres unmarked) [Compound L19, 2-(3-[1-Carboxy-5-(7-(1-carboxy-5-[(6-hydrazino-pyridine-3-carbonyl)-amino]-pentylcarbamoyl)-heptanoylamino)-pentyl]-ureido)-pentanedioic acid] |
| 1.12 nM | NC(Cc1cn(CCCC[C@H](NC(=O)CCCCCCC(=O)NCCCC[C@H](NC(=O)N[C@@H](CCC(=O)O)C(=O)O)C(=O)O)C(=O)O)nn1)C(=O)O (stereo partly drawn) [Compound L8, (3S,7S,22S)-26-(4-(2-amino-2-carboxyethyl)-1H-1,2,3-triazol-1-yl)-5,13,20-trioxo-4,6,12,21-tetraazahexacosane-1,3,7,22-tetracarboxylic acid] |
| 0.03 nM | O=C(O)CCC(NC(=O)NC(CCCCNC(=O)CCCCCCC(=O)NCCCCC(NC(=O)CNC(=O)CNC(=O)CSC(c1ccccc1)(c1ccccc1)c1ccccc1)C(=O)O)C(=O)O)C(=O)O (centres unmarked) [Compound L11] |
